The text below walks through data of patent US4578468A, “Antibiotic LL-D42067β” (American Cyanamid Company, priority 1984, dated 1986).

In brackets after ≈: the same amount, converted by molar mass.

The term MIC denotes the least concentration at which growth counts as inhibited.

The subject of experiment [1] is Acinetobacter calcoaceticus. The experiment is described as follows: in vitro antimicrobial spectrum, agar plate dilution (MIC). The format is cell-based. Particulars: strain STFD 79-17, 18 hours, 35° C., Mueller-Hinton agar. The protocol: (§1) The in vitro antimicrobial spectrum of LL-D42067β was determined by the agar plate dilution method with Mueller-Hinton agar and an inoculum of each test organism of approximately 10^4 colony forming units delivered by the Steers replicating device. The minimal inhibitory concentration (MIC) in mcg/ml was defined as the lowest concentration of LL-D42067β that inhibited visible growth after 18 hours incubation at 35° C.

In another experiment the test system is Candida albicans. The description is as above. In kind it is cell-based. The settings on record: strain CA 300, 18 hours, 35° C., Mueller-Hinton agar. On the procedure:
as §1

The next experiment concerns Escherichia coli. The description is as above. In kind it is cell-based. Particulars: 35° C., Mueller-Hinton agar. On the procedure:
as §1

A further experiment relates to Mycobacterium smegmatis. Described as above. The format is cell-based. The settings on record: Mycolicibacterium smegmatis, ATCC607; strain ATCC 607; 18 hours, 35° C., Mueller-Hinton agar. On the procedure: as §1
A further experiment concerns Saccharomyces cerevisiae. The description is as above. The settings on record: strain Y 15, 18 hours, 35° C., Mueller-Hinton agar. In kind it is cell-based. On the procedure: as §1
The test system of a further experiment is Staphylococcus aureus. The description is as above. In kind it is cell-based. The settings on record: Mueller-Hinton agar. The protocol:
as §1

The test system of experiment [2] is Staphylococcus epidermidis. Described as above. The format is cell-based. The settings on record: ATCC12228, strain ATCC 12228, 18 hours, 35° C., Mueller-Hinton agar. The protocol: as §1
In the next experiment the test system is Streptococcus mutans. Described as above. The format is cell-based. The settings on record: 35° C., Mueller-Hinton agar. The protocol:
as §1

The next experiment concerns gram-positive bacteria. The experiment in a line: in vitro antimicrobial spectrum, summary. The format is cell-based. The settings on record: summary of Table VI. The protocol: as §1
Another experiment relates to yeasts. The experiment in a line: in vitro antimicrobial spectrum, summary. In kind it is cell-based. Particulars: summary of Table VI. The protocol:
as §1

The conditions of experiment [3]: poultry; subject of a copending application; cited from earlier work.

With `COc1c2c(c(O)c3c(=O)c4c(oc13)[C@@H](O)CC[C@@H]4O)-c1c3c(c4cc(C)[nH]c(=O)c4c1O)OCO[C@H]3C2` (relative stereo) [LL-D42067β], the MIC in experiment [1] is 512 µg/mL (≈ 982 µM); with Candida albicans, 512 µg/mL (≈ 982 µM); in the experiment on Escherichia coli (ATCC25922, strain ATCC 25922, 18 hours), 512 µg/mL (≈ 982 µM); with Escherichia coli (strain No. 311, 18 hours) it was 512 µg/mL (≈ 982 µM); against Mycobacterium smegmatis, 512 µg/mL (≈ 982 µM); in the experiment with Saccharomyces cerevisiae, 512 µg/mL (≈ 982 µM). The MIC is 0.12 µg/mL (≈ 0.23 µM) with Staphylococcus aureus (18 h, strain LL No. 45, 35° C.); 0.25 µg/mL (≈ 0.479 µM) in the experiment on Staphylococcus aureus (ATCC25923, 18 h, strain ATCC 25923, 35° C.); 0.25 µg/mL (≈ 0.479 µM) in [2]; 0.25 µg/mL (≈ 0.479 µM) against Streptococcus mutans (ATCC27352, strain ATCC 27352-1, 18 hours); 0.25 µg/mL (≈ 0.479 µM) in the experiment on Streptococcus mutans (strain BHI (b), 18 hours). Besides, the “antibacterial activity (in words)” value in the experiment on gram-positive bacteria was “active”. In the experiment on yeasts, the “activity against yeasts (in words)” value is “moderately active”. In experiment [3], the “anticoccidial effect (in words)” value is on record as “effective”.
